For the test, the system named is α-synuclein cytotoxicity in M17-SYNwt cells. Put plainly: α-synuclein cytotoxicity assay: LDH leakage from paraquat-treated M17-SYNwt neuroblastoma cells.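 As to all read-outs here: paraquat at 32 mM co-added with compound, 40 h exposure, LDH activity released into the culture medium measured, references are DMSO-only cells and paraquat plus DMSO cells.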 The following applies: Homo sapiens, Neuroblastoma cell; for Emax: read-out: % Inhib.

For orientation: EC50 means the concentration needed to bring the measured effect to its halfway point. A lower EC50 goes with an effect from little substance.

For `CC1CN(c2nc(Cc3ccc(Cl)cc3)ns2)CCN1C(=O)/C=C/c1ccccc1` (stereo not drawn) [compound 86, 1-[(2E)-3-phenylprop-2-enoyl]-4-[3-(4-chlorobenzyl)-1,2,4-thiadiazol-5-yl]2-methylpiperazine], the EC50 was found to be 1130 nM and the Emax was 81%.

As to `CC1CN(c2nc(Cc3ccc(F)cc3)ns2)CCN1C(=O)/C=C/c1ccccc1` (stereo not drawn) [compound 87, 1-[(2E)-3-phenylprop-2-enoyl]-4-[3-(4-fluorobenzyl)-1,2,4-thiadiazol-5-yl]-2-methylpiperazine], a half-maximal effect (EC50) was put at 2490 nM and the Emax stood at 94%.

`O=C(/C=C/c1ccccc1)N1CCN(c2nc(Cc3ccc(Cl)cc3)ns2)CC1` [compound 88, [(2E)-3-phenylprop-2-enoyl]-4-[3-(4-chlorobenzyl)-1,2,4-thiadiazol-5-yl]piperazine]: the Emax came out at 72%.

`CC1CN(c2nc(Cc3ccc(F)cc3)ns2)CCN1C(=O)CCc1ccccc1` (stereo not drawn) [compound 89, 1-(3-phenylpropanoyl)-4-[3-(4-fluorobenzyl)-1,2,4-thiadiazol-5-yl]-2-methylpiperazine]: the EC50 came to 600 nM and the Emax was determined as 86%.

Turning to `O=C(CCc1ccccc1)N1CCN(c2nc(Cc3ccc(F)cc3)ns2)CC1` [compound 90, 1-(3-phenylpropanoyl)-4-[3-(4-fluorobenzyl)-1,2,4-thiadiazol-5-yl]piperazine], the concentration for a half-maximal effect (EC50) was found to be 1410 nM and the Emax was determined as 73%.

With `Cc1ccc(Cc2nsc(N3CCN(C/C=C/c4ccccc4)CC3)n2)cc1` [compound 91, 1-[3-phenylprop-2-enyl]-4-[3-(4-methylbenzyl)-1,2,4-thiadiazol-5-yl]piperazine], the EC50 worked out at 710 nM and the Emax came out at 90%.

In the case of `Clc1ccc(Cc2nsc(N3CCN(C/C=C/c4ccccc4)CC3)n2)cc1` [compound 92, 1-[3-phenylprop-2-enyl]-4-[3-(4-chlorobenzyl)-1,2,4-thiadiazol-5-yl]piperazine], the midpoint of the response, the EC50, lay at 750 nM and the Emax was found to be 69%.

For the compound `Fc1ccc(Cc2nsc(N3CCN(C/C=C/c4ccccc4)CC3)n2)cc1` [compound 93, 1-[3-phenylprop-2-enyl]-4-[3-(4-fluorobenzyl)-1,2,4-thiadiazol-5-yl]piperazine], the response was half-maximal at 1990 nM (EC50) and the Emax amounted to 91%.

With `CCCCCc1ccc(C(=O)NCCN2CCN(c3nc(Cc4ccc(F)cc4)ns3)CC2)cc1` [compound 94, 4-pentyl-N-{2-[4-[3-(4-fluorobenzyl)-1,2,4-thiadiazol-5-yl]piperazin-1-yl]ethyl}benzamide], the EC50 amounted to 350 nM and the Emax turned out to be 90%.

With `CCCCc1ccc(C(=O)NCCN2CCN(c3nc(Cc4ccc(F)cc4)ns3)CC2)cc1` [compound 95, 4-butyl-N-{2-[4-[3-(4-fluorobenzyl)-1,2,4-thiadiazol-5-yl]piperazin-1-yl]ethyl}benzamide], the midpoint of the response, the EC50, lay at 380 nM and the Emax was found to be 78%.

`CCCCCCc1ccc(C(=O)NCCN2CCN(c3nc(Cc4ccc(F)cc4)ns3)CC2)cc1` [compound 96, 4-hexyl-N-{2-[4-[3-(4-fluorobenzyl)-1,2,4-thiadiazol-5-yl]piperazin-1-yl]ethyl}benzamide]: it took 800 nM to reach a half-maximal effect (EC50) and the Emax turned out to be 72%.

With `O=C(NCCN1CCN(c2nc(Cc3ccc(F)cc3)ns2)CC1)c1ccc(Cl)cc1` [compound 97, 4-chloro-N-{2-[4-[3-(4-fluorobenzyl)-1,2,4-thiadiazol-5-yl]piperazin-1-yl]ethyl}benzamide], the EC50 was found to be 1290 nM and the Emax came to 68%.

As to `O=C(NCCN1CCN(c2nc(Cc3ccc(F)cc3)ns2)CC1)c1cc(Cl)cc(Cl)c1` [compound 98, 3,5-dichloro-N-{2-[4-[3-(4-fluorobenzyl)-1,2,4-thiadiazol-5-yl]piperazin-1-yl]ethyl}benzamide], the EC50 is 1420 nM and the Emax stood at 102%.

On to `Cc1ccccc1C(=O)NCCN1CCN(c2nc(Cc3ccc(F)cc3)ns2)CC1` [compound 99, 2-methyl-N-{2-[4-[3-(4-fluorobenzyl)-1,2,4-thiadiazol-5-yl]piperazin-1-yl]ethyl}benzamide], for which the EC50 was determined as 1580 nM and the Emax worked out at 97%.

Take `O=C(NCCN1CCN(c2nc(Cc3ccc(Cl)cc3)ns2)CC1)c1cccc(F)c1` [compound 100, 3-fluoro-N-{2-[4-[3-(4-chlorobenzyl)-1,2,4-thiadiazol-5-yl]piperazin-1-yl]ethyl}benzamide]: the EC50 stood at 1790 nM and the Emax is 75%.

`Cc1ccc(C(=O)NCCN2CCN(c3nc(Cc4ccc(F)cc4)ns3)CC2)cc1` [compound 101, 4-methyl-N-{2-[4-[3-(4-fluorobenzyl)-1,2,4-thiadiazol-5-yl]piperazin-1-yl]ethyl}benzamide]: the EC50 was 1940 nM and the Emax worked out at 68%.

Regarding `O=C(NCCN1CCN(c2nc(Cc3ccc(F)cc3)ns2)CC1)c1ccc(F)cc1` [compound 102, 4-fluoro-N-{2-[4-[3-(4-fluorobenzyl)-1,2,4-thiadiazol-5-yl]piperazin-1-yl]ethyl}benzamide], the midpoint of the response, the EC50, lay at 1990 nM and the Emax came out at 80%.

Take `CCc1ccc(C(=O)NCCN2CCN(c3nc(Cc4ccc(F)cc4)ns3)CC2)cc1` [compound 103, 4-ethyl-N-{2-[4-[3-(4-fluorobenzyl)-1,2,4-thiadiazol-5-yl]piperazin-1-yl]ethyl}benzamide]: the EC50 was 2320 nM and the Emax came to 139%.

`O=C(NCCN1CCN(c2nc(Cc3ccc(F)cc3)ns2)CC1)c1ccccc1` [compound 104, N-{2-[4-[3-(4-fluorobenzyl)-1,2,4-thiadiazol-5-yl]piperazin-1-yl]ethyl}benzamide]: the 50% effective concentration (EC50) came out at 3820 nM and the Emax is 65%.

On to `O=C(NCCN1CCN(c2nc(Cc3ccc(F)cc3)ns2)CC1)c1cccc(F)c1` [compound 105, 3-fluoro-N-{2-[4-[3-(4-fluorobenzyl)-1,2,4-thiadiazol-5-yl]piperazin-1-yl]ethyl}benzamide], for which the Emax came out at 115%.

As for `O=C(NCCN1CCN(c2nc(Cc3ccccc3)ns2)CC1)c1cccc(F)c1` [compound 106, 3-fluoro-N-{2-[4-[3-benzyl-1,2,4-thiadiazol-5-yl]piperazin-1-yl]ethyl}benzamide], the Emax came to 49%.

Take `O=C(Cc1ccc(F)cc1)NCCN1CCN(c2nc(Cc3ccc(F)cc3)ns2)CC1` [compound 107, 2-(4-fluorophenyl)-N-{2-[4-[3-(4-fluorobenzyl)-1,2,4-thiadiazol-5-yl]piperazin-1-yl]ethyl}acetamide]: the half-maximal effective concentration (EC50) was found to be 260 nM and the Emax was determined as 80%.

On to `O=C(Cc1ccccc1)NCCN1CCN(c2nc(Cc3ccc(F)cc3)ns2)CC1` [compound 108, 2-phenyl-N-{2-[4-[3-(4-fluorobenzyl)-1,2,4-thiadiazol-5-yl]piperazin-1-yl]ethyl}acetamide], for which the response was half-maximal at 2060 nM (EC50) and the Emax is 63%.

For the compound `Cc1ccc(Cc2nsc(N3CCN(CCNC(=O)Cc4ccc(F)cc4)CC3)n2)cc1` [compound 109, 2-(4-fluorophenyl)-N-{2-[4-[3-(4-methylbenzyl)-1,2,4-thiadiazol-5-yl]piperazin-1-yl]ethyl}acetamide], the midpoint of the response, the EC50, lay at 3520 nM and the Emax stood at 93%.

The record behind these values is patent publication US7960556B2, “Thiadiazole derivatives for the treatment of neuro-degenerative diseases” (NV reMYND, priority 2006, dated 2011).
